Data published in patent publication US8952024B2, “Herbicidal pyrimidone derivatives” (E I du Pont de Nemours and Company, priority 2009, dated 2015).

Legend:
Format in all cases: in vivo
[1] = test system: large crabgrass (Digitaria sanguinalis); experiment: Test B pre-/postemergence plant response
Method in brief: (§1)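 Seeds were sown in loam soil/sand blend and treated preemergence with compound in non-phytotoxic solvent mixture containing surfactant; postemergence sprays, same formulation, went onto plants 2 to 18 cm (1- to 4-leaf stage) in peat-based planting medium. Greenhouse 13 to 15 days, then visual rating versus untreated controls, 0 (no effect) to 100 (complete control).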

[2] = test system: Surinam grass (Brachiaria decumbens); experiment: Test B pre-/postemergence plant response; conditions: for Plant response rating, Surinam Grass: Postemergence, scale 0 to 100 (0 no effect, 100 complete control)
Method in brief: as §1

[3] = test system: ragweed (common ragweed, Ambrosia elatior); experiment: Test B pre-/postemergence plant response; conditions: for Plant response rating, Ragweed: Postemergence, scale 0 to 100 (0 no effect, 100 complete control)
Method in brief: as §1

[4] = test system: wild oat (Avena fatua); experiment: Test B pre-/postemergence plant response
Method in brief: as §1

[5] = test system: blackgrass (Alopecurus myosuroides); experiment: Test B pre-/postemergence plant response
Method in brief: as §1

[6] = test system: woolly cupgrass (Eriochloa villosa); experiment: Test B pre-/postemergence plant response
Method in brief: as §1

[7] = test system: soybean (Glycine max); experiment: Test B pre-/postemergence plant response; conditions: for Plant response rating, Soybean: Postemergence, scale 0 to 100 (0 no effect, 100 complete control)
Method in brief: as §1

[8] = test system: bermudagrass (Cynodon dactylon); experiment: Test B pre-/postemergence plant response
Method in brief: as §1

[9] = test system: Italian ryegrass (Lolium multiflorum); experiment: Test B pre-/postemergence plant response; conditions: for Plant response rating, Ryegrass, Italian: Postemergence, scale 0 to 100 (0 no effect, 100 complete control)
Method in brief: as §1

[10] = test system: corn (Zea mays); experiment: Test B pre-/postemergence plant response
Method in brief: as §1

[11] = test system: lambsquarters (Chenopodium album); experiment: Test B pre-/postemergence plant response
Method in brief: as §1

[12] = test system: velvetleaf (Abutilon theophrasti); experiment: Test B pre-/postemergence plant response; conditions: for Plant response rating, Velvetleaf: Postemergence, scale 0 to 100 (0 no effect, 100 complete control)
Method in brief: as §1

[13] = test system: johnsongrass (Sorghum halepense); experiment: Test B pre-/postemergence plant response
Method in brief: as §1

[14] = test system: yellow nutsedge (Cyperus esculentus); experiment: Test B pre-/postemergence plant response
Method in brief: as §1

[15] = test system: windgrass (Apera spica-venti); experiment: Test B postemergence plant response; conditions: for Plant response rating, Windgrass: Postemergence, scale 0 to 100 (0 no effect, 100 complete control)
Method in brief: (§2)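 Plants grown in peat/vermiculite medium were sprayed postemergence at 2–18 cm height (1- to 4-leaf stage). After 13–15 days in the greenhouse, response was rated visually against untreated controls on a 0–100 scale (0 no effect, 100 complete control).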

[16] = test system: chickweed (Stellaria media); experiment: Test B postemergence plant response
Method in brief: as §2

[17] = test system: canarygrass (Phalaris minor); experiment: Test B postemergence plant response
Method in brief: as §2

[18] = test system: winter barley (Hordeum vulgare); experiment: Test B postemergence plant response
Method in brief: as §2

[19] = 31 g ai/ha, postemergence, scale 0 to 100, 0 is no effect, 100 is complete control
[20] = 62 g ai/ha, postemergence, 0 is no effect, 100 is complete control, 13 to 15 days
[21] = Postemergence, 125 g ai/ha, scale 0 to 100 (0 no effect, 100 complete control)
[22] = Postemergence, 250 g ai/ha, scale 0 to 100 (0 no effect, 100 complete control)

O=C1CCCC(O)=C1C(=O)c1cnc(-c2ccsc2)n(C2CCCCC2)c1=O [Compound 99]
70: Surinam Grass plant response rating (0 to 100 scale) [2, 20] | Plant response rating, Cupgrass, Woolly [6, 19] | Plant response rating, Johnsongrass [13, 19] | Nutsedge, Yellow plant response rating (0 to 100 scale) [14, 20] | Plant response rating, Nutsedge, Yellow [14, 21] | Plant response rating, Canarygrass [17, 22]
100: Soybean plant response rating (0 to 100 scale) [7, 20] | Plant response rating, Soybean ([7]; 125 g ai/ha) | Plant response rating, Soybean ([7]; 250 g ai/ha) | Lambsquarters plant response rating (0 to 100 scale) [11, 20] | Plant response rating, Lambsquarters [11, 21] | Plant response rating, Lambsquarters [11, 22] | Velvetleaf plant response rating (0 to 100 scale) [12, 20] | Plant response rating, Velvetleaf ([12]; 125 g ai/ha) | Plant response rating, Velvetleaf ([12]; 250 g ai/ha)
45: Plant response rating, Nutsedge, Yellow [14, 19]
60: Plant response rating, Windgrass ([15]; 250 g ai/ha) | Canarygrass plant response rating (0 to 100 scale) [17, 20] | Plant response rating, Canarygrass [17, 21]
0: Plant response rating, Blackgrass [5, 19] | Blackgrass plant response rating (0 to 100 scale) [5, 20] | Ryegrass, Italian plant response rating (0 to 100 scale) [9, 20]
10: Plant response rating, Oat, Wild [4, 19] | Plant response rating, Windgrass ([15]; 125 g ai/ha) | Plant response rating, Barley [18, 21]
85: Plant response rating, Crabgrass, Large [1, 19] | Crabgrass, Large plant response rating (0 to 100 scale) [1, 20] | Plant response rating, Cupgrass, Woolly [6, 22]
5: Plant response rating, Blackgrass [5, 21] | Windgrass plant response rating (0 to 100 scale) [15, 20] | Plant response rating, Barley [18, 19] | Barley plant response rating (0 to 100 scale) [18, 20]
30: Plant response rating, Barley [18, 22]
98: Plant response rating, Bermudagrass [8, 22] | Plant response rating, Lambsquarters [11, 19] | Chickweed plant response rating (0 to 100 scale) [16, 20] | Plant response rating, Chickweed [16, 21] | Plant response rating, Chickweed [16, 22]
40: Plant response rating, Oat, Wild [4, 21] | Plant response rating, Corn [10, 19] | Plant response rating, Canarygrass [17, 19]
15: Plant response rating, Blackgrass [5, 22]
95: Plant response rating, Crabgrass, Large [1, 21] | Plant response rating, Crabgrass, Large [1, 22] | Plant response rating, Ragweed ([3]; 250 g ai/ha) | Plant response rating, Johnsongrass [13, 22]
80: Plant response rating, Surinam Grass ([2]; 250 g ai/ha) | Ragweed plant response rating (0 to 100 scale) [3, 20] | Plant response rating, Ragweed ([3]; 125 g ai/ha) | Plant response rating, Oat, Wild [4, 22] | Plant response rating, Cupgrass, Woolly [6, 21] | Plant response rating, Bermudagrass [8, 21] | Plant response rating, Corn [10, 22] | Plant response rating, Johnsongrass [13, 21] | Plant response rating, Chickweed [16, 19]
75: Plant response rating, Surinam Grass ([2]; 125 g ai/ha) | Cupgrass, Woolly plant response rating (0 to 100 scale) [6, 20] | Plant response rating, Bermudagrass [8, 19] | Bermudagrass plant response rating (0 to 100 scale) [8, 20] | Johnsongrass plant response rating (0 to 100 scale) [13, 20] | Plant response rating, Nutsedge, Yellow [14, 22]
20: Oat, Wild plant response rating (0 to 100 scale) [4, 20] | Plant response rating, Ryegrass, Italian ([9]; 125 g ai/ha) | Plant response rating, Ryegrass, Italian ([9]; 250 g ai/ha)
65: Corn plant response rating (0 to 100 scale) [10, 20] | Plant response rating, Corn [10, 21]
